The NIST ThermoML archive (doi:10.1021/je7003758)
± gives the expanded uncertainty stated by the source.

conditions: 298.15 K; 100 kPa; Liquid

| SMILES | mass density [kg/m3] |
| --- | --- |
| CCCCCCCl [1-chlorohexane] | 873.1 ± 0.6 |
| CCCCCCCCCl [1-chlorooctane] | 868.8 ± 1.3 |
| ClCCCCCCCl [1,6-dichlorohexane] | 1063.8 ± 1.4 |
| ClCCCl [1,2-dichloroethane] | 1245.5 ± 0.6 |
| ClCCCCCl [1,4-dichlorobutane] | 1133.7 ± 3.4 |
| CCCCCl [1-chlorobutane] | 880.6 ± 0.3 |

same assay, conditions: 298.15 K; 10000 kPa; Liquid

| mass density [kg/m3] | SMILES |
| --- | --- |
| 1255.1 ± 1 | ClCCCl [1,2-dichloroethane] |
